Experimental data published in ChEMBL document CHEMBL1759976, “Carbonic anhydrase inhibitors. Inhibition of the β-class enzymes from the fungal pathogens Candida albicans and Cryptococcus neoformans with branched aliphatic/aromatic carboxylates and their derivatives” (Bioorg Med Chem Lett, 2011).

Columns and labels:
[1] = Inhibition of Candida albicans Nce103 beta-carbonic anhydrase by stopped flow CO2 hydration assay
[2] = Inhibition of Cryptococcus neoformans Can2 beta-carbonic anhydrase by stopped flow CO2 hydration assay
Carbonic anhydrase 2 = Carbonic anhydrase 2 (Homo sapiens, UniProt P00918)
Carbonic anhydrase 1 = Carbonic anhydrase 1 (Homo sapiens, UniProt P00915); assay: Inhibition of human cytosolic carbonic anhydrase 1 by stopped flow CO2 hydration assay
Sequence of Carbonic anhydrase 1 (P00915 whole entry): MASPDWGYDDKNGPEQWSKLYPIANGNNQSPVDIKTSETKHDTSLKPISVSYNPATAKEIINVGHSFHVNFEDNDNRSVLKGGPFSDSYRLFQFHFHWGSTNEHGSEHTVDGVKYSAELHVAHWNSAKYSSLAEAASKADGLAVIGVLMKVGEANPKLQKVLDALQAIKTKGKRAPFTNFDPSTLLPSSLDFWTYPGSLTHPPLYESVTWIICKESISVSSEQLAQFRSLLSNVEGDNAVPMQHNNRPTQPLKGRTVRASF

Compound: CCC(C)CCC(=O)O (centres undefined)
- Ki [1]: 1.25 µM
- Ki [2]: 0.8 µM
- Ki (Carbonic anhydrase 2): 112 µM
- Ki (Carbonic anhydrase 1): 420 µM

Compound: O=C(O)c1ccc(I)cc1
- Ki [1]: 5.17 µM
- Ki [2]: 5.46 µM

Compound: CCCCCCC(CCCC)C(=O)O (centres undefined)
- Ki [1]: 10.7 µM
- Ki (Carbonic anhydrase 1): 101 µM

Compound: CCCC(C)C(=O)O (centres undefined)
- Ki [1]: 10.4 µM
- Ki [2]: 10.2 µM
- Ki (Carbonic anhydrase 2): 113 µM
- Ki (Carbonic anhydrase 1): 310 µM

Compound: COc1ccc(C(N)=O)cc1
- Ki [1]: 0.54 µM
- Ki [2]: 0.062 µM
- Ki (Carbonic anhydrase 2): 2.18 µM
- Ki (Carbonic anhydrase 1): 4.34 µM

Compound: N#Cc1ccc(C(=O)O)cc1
- Ki [1]: 4.47 µM
- Ki [2]: 0.14 µM

Compound: CCCCC(CC)C(=O)NN (centres undefined)
- Ki [1]: 4.56 µM
- Ki [2]: 0.23 µM

Compound: CC(C)CCC(=O)O
- Ki [1]: 2.14 µM

Compound: CN(C)c1ccc(C(=O)O)cc1
- Ki [1]: 5.2 µM
- Ki [2]: 0.13 µM
- Ki (Carbonic anhydrase 2): 3.33 µM
- Ki (Carbonic anhydrase 1): 3.94 µM

Compound: Nc1cccc(C(=O)O)c1
- Ki [1]: 3.4 µM
- Ki [2]: 3.06 µM
- Ki (Carbonic anhydrase 2): 8.63 µM
- Ki (Carbonic anhydrase 1): 8.79 µM

Compound: CCCCC(CC)CCC(=O)O (centres undefined)
- Ki [1]: 37.9 µM
- Ki [2]: 41.2 µM
- Ki (Carbonic anhydrase 1): 380 µM

Compound: COc1ccc(C(=O)O)cc1
- Ki [1]: 0.15 µM
- Ki [2]: 0.0099 µM
- Ki (Carbonic anhydrase 2): 8.03 µM
- Ki (Carbonic anhydrase 1): 9.06 µM

Compound: CC(=O)[O-].[Na+] [SODIUM ACETATE]
- Ki (Carbonic anhydrase 1): 10.8 µM

Compound: CC(=O)Nc1ccc(C(=O)[O-])cc1.[Na+]
- Ki [1]: 0.34 µM
- Ki [2]: 0.32 µM
- Ki (Carbonic anhydrase 2): 7.28 µM
- Ki (Carbonic anhydrase 1): 4.04 µM

Compound: CCCCC(CC)C(=O)O (centres undefined) [2-ETHYLHEXANOIC ACID]
- Ki (Carbonic anhydrase 2): 93 µM
- Ki (Carbonic anhydrase 1): 450 µM

Compound: COc1ccc(C(=O)NN)cc1
- Ki [1]: 0.81 µM
- Ki [2]: 0.087 µM
- Ki (Carbonic anhydrase 2): 5.75 µM
- Ki (Carbonic anhydrase 1): 7.84 µM

Compound: O=C[O-].[Na+] [SODIUM FORMATE]
- Ki (Carbonic anhydrase 1): 1040 µM

Compound: CCCCC(CC)C(=O)NO (centres undefined)
- Ki [1]: 3.05 µM
- Ki [2]: 0.29 µM

Compound: CCCCC(=O)[O-].[Na+] [SODIUM VALERATE]
- Ki (Carbonic anhydrase 1): 55.3 µM

Compound: COc1ccc(C(=O)NO)cc1
- Ki [1]: 0.47 µM
- Ki [2]: 0.071 µM

Compound: CCC(C)CC(=O)O (centres undefined)
- Ki [1]: 11.1 µM
- Ki [2]: 34.9 µM
- Ki (Carbonic anhydrase 2): 281 µM
- Ki (Carbonic anhydrase 1): 104 µM

Compound: O=C(O)c1ccc(O)cc1
- Ki [1]: 0.11 µM
- Ki [2]: 0.0095 µM
- Ki (Carbonic anhydrase 1): 7.61 µM

Compound: O=C(O)c1ccc(S(=O)(=O)N(Cl)Cl)cc1
- Ki [1]: 4.97 µM
- Ki [2]: 0.12 µM
- Ki (Carbonic anhydrase 2): 1.96 µM
- Ki (Carbonic anhydrase 1): 3.88 µM

Compound: CCCCC(CC)C(=O)OC (centres undefined)
- Ki [1]: 5.6 µM
- Ki [2]: 0.74 µM

Compound: COC(=O)c1ccc(OC)cc1 [METHYL 4-METHOXYBENZOATE]
- Ki [1]: 0.61 µM
- Ki [2]: 0.067 µM

Compound: CC(C)C(=O)[O-].[Na+] [SODIUM ISOBUTYRATE]
- Ki [1]: 0.98 µM
- Ki [2]: 3.81 µM
- Ki (Carbonic anhydrase 2): 350 µM
- Ki (Carbonic anhydrase 1): 120 µM

Compound: CCCCC(CC)C(N)=O (centres undefined)
- Ki [1]: 5.7 µM
- Ki [2]: 0.39 µM

Compound: O=C(O)c1ccc(CCl)cc1
- Ki [1]: 4.71 µM
- Ki [2]: 3.65 µM

Compound: Nc1ccc(C(=O)O)cc1 [AMINOBENZOATE SODIUM]
- Ki [1]: 2.95 µM
- Ki [2]: 0.12 µM
- Ki (Carbonic anhydrase 2): 8.13 µM
- Ki (Carbonic anhydrase 1): 8.4 µM

Compound: O=C(O)c1ccc(F)cc1
- Ki [1]: 1.09 µM
- Ki [2]: 0.13 µM
- Ki (Carbonic anhydrase 2): 3.34 µM
- Ki (Carbonic anhydrase 1): 7.39 µM

Compound: CCCCC(CC)C(=O)O (centres undefined)
- Ki [1]: 43.1 µM
- Ki [2]: 0.95 µM
- Ki (Carbonic anhydrase 2): 93 µM
- Ki (Carbonic anhydrase 1): 450 µM

Compound: CCCC(=O)[O-].[Na+] [SODIUM BUTYRATE]
- Ki (Carbonic anhydrase 1): 511 µM

Compound: CCCCCC(C)C(=O)O (centres undefined)
- Ki [1]: 11.7 µM
- Ki [2]: 39.3 µM
- Ki (Carbonic anhydrase 2): 110 µM

Compound: COc1ccc(C(=O)O)cc1 [p-ANISIC ACID]
- Ki (Carbonic anhydrase 2): 8.03 µM
- Ki (Carbonic anhydrase 1): 9.06 µM

Compound: CCC(=O)[O-].[Na+] [SODIUM PROPIONATE]
- Ki (Carbonic anhydrase 1): 1010 µM

Compound: CCCCC(C)C(=O)O (centres undefined)
- Ki [1]: 3.73 µM
- Ki [2]: 3.23 µM
- Ki (Carbonic anhydrase 2): 103 µM
- Ki (Carbonic anhydrase 1): 380 µM

Compound: CC(C)CC(=O)O [SODIUM ISOVALERATE]
- Ki [1]: 0.95 µM
- Ki [2]: 0.91 µM
- Ki (Carbonic anhydrase 2): 100 µM
- Ki (Carbonic anhydrase 1): 300 µM

Compound: CC(=O)Nc1nnc(S(N)(=O)=O)s1 [ACETAZOLAMIDE]
- Ki [1]: 0.13 µM
- Ki [2]: 0.01 µM

Compound: O=C(O)c1ccc([N+](=O)[O-])cc1
- Ki [1]: 4.85 µM
- Ki [2]: 0.12 µM
- Ki (Carbonic anhydrase 2): 8.56 µM
- Ki (Carbonic anhydrase 1): 8.8 µM
